According to PubChem BioAssay (NCI):
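Assay format: 96-well plates, 48-hour exposure. GI50 marks 50% less growth. TGI: total growth inhibition.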

Columns and labels:
Test in all cases: inhibition of tumour cell growth, NCI panel, 48 h
NCI-H522 lung = system: NCI-H522 lung
SK-MEL-5 melanoma = system: SK-MEL-5 melanoma
SF-268 CNS = system: SF-268 CNS
KM12 colon = system: KM12 colon
HT29 colon = system: HT29 colon
LOX IMVI melanoma = system: LOX IMVI melanoma
MALME-3M melanoma = system: MALME-3M melanoma
OVCAR-8 ovarian = system: OVCAR-8 ovarian
EKVX NSCLC = system: EKVX NSCLC

Row | Compound | GI50 (NCI-H522 lung) | TGI (NCI-H522 lung) | GI50 (SK-MEL-5 melanoma) | TGI (SK-MEL-5 melanoma) | GI50 (SF-268 CNS) | TGI (SF-268 CNS) | GI50 (KM12 colon) | TGI (KM12 colon) | GI50 (HT29 colon) | TGI (HT29 colon) | GI50 (LOX IMVI melanoma) | TGI (LOX IMVI melanoma) | GI50 (MALME-3M melanoma) | TGI (MALME-3M melanoma) | GI50 (OVCAR-8 ovarian) | TGI (OVCAR-8 ovarian) | GI50 (EKVX NSCLC) | TGI (EKVX NSCLC)
1 | Cc1cc(/C=C2\SC(=Nc3ccccc3)N(C3CCCC3)C2=O)c(C)n1-c1ccc(Cl)cc1 | > 100 µM | > 100 µM | > 100 µM | > 100 µM | > 100 µM | > 100 µM | > 100 µM | > 100 µM | > 100 µM | > 100 µM | > 100 µM | > 100 µM | > 100 µM | > 100 µM | > 100 µM | > 100 µM | – | –
2 | COc1cc(OC2OC(C)C(O)C(O)C2O)cc2oc(-c3ccc(O)cc3)c(CC=C(C)C)c(=O)c12 (stereo not given) | 13 µM | 39.8 µM | 13.6 µM | 30.9 µM | 15.4 µM | 32.5 µM | 12.2 µM | 31 µM | – | – | 10.4 µM | 23 µM | 15.5 µM | 55.5 µM | 32.3 µM | > 100 µM | 25.6 µM | 99.4 µM
3 | Cc1c(CCCl)c(=O)n2c([nH]c3ccccc32)c1C#N | – | – | – | 2.8 µM | – | 4.41 µM | – | 3.14 µM | – | 3.49 µM | – | 2.02 µM | – | 2.02 µM | – | 3.15 µM | – | 3.65 µM
4 | Oc1ccc(N=Nc2ccc(Cl)cc2)cc1 | – | 25 µM | – | 24.1 µM | – | 34.5 µM | – | 28.2 µM | – | 32.2 µM | – | 24.6 µM | – | – | – | 38.2 µM | – | 31.8 µM
5 | O=c1cc(-c2ccccc2)[nH]c2cccc(S)c12 | – | – | – | > 100 µM | – | > 100 µM | – | > 100 µM | – | – | – | – | – | > 100 µM | – | 2.37 µM | – | > 100 µM
6 | COc1cc(/C=C/c2cc(C(F)(F)F)[nH]c(=O)n2)ccc1OCc1ccccc1F | 5.62 µM | 20.4 µM | 6.97 µM | 20.2 µM | 17.9 µM | > 100 µM | 11.8 µM | 26.2 µM | 21.5 µM | 43.6 µM | 8.57 µM | 22 µM | 13.9 µM | 43.1 µM | 8.85 µM | 48.8 µM | – | –
7 | CCN(CC)CCNc1c(OC)cc(C)c2sc3ccccc3c(=O)c12 | – | 20 µM | – | 3.4 µM | – | 25.7 µM | – | 17.2 µM | – | 6.42 µM | – | – | – | 6.08 µM | – | 26.1 µM | – | 32.5 µM
8 | CN(C(=O)c1ccc(Cl)s1)C(=S)N(C)C(=O)c1ccc(Cl)s1 | – | > 10 µM | – | > 10 µM | – | > 10 µM | – | > 10 µM | – | > 10 µM | – | > 10 µM | – | > 10 µM | – | > 10 µM | – | > 10 µM
9 | COc1cc(OC)c(/C=C/c2ccc3ccccc3[n+]2C)c(OC)c1 | 1.14 µM | 6.25 µM | 0.567 µM | 1.95 µM | 0.501 µM | 7.61 µM | 0.322 µM | 1.99 µM | 0.28 µM | 1.57 µM | 1.33 µM | 3.99 µM | 0.691 µM | 5.38 µM | 0.507 µM | 6.48 µM | – | –
10 | O=[N+]([O-])c1ccc2[nH]cc(-c3c4ccsc4cc4[nH]c5ccc([N+](=O)[O-])cc5c34)c2c1 | 0.423 µM | 3.42 µM | 0.394 µM | 2.01 µM | 1.39 µM | 18.5 µM | 0.77 µM | 4.21 µM | 1.21 µM | 12.5 µM | 0.834 µM | 5.48 µM | 0.898 µM | 9.44 µM | 1.25 µM | 19.7 µM | 1.56 µM | 11.4 µM
11 | O=C(O)C1CCc2ccc3ccccc3c2C1c1cccc2ccccc12 (stereo not given) | – | 60 µM | – | 30.1 µM | – | 91.7 µM | – | 37.8 µM | – | 32.7 µM | – | 36.3 µM | – | 50.4 µM | – | 52.1 µM | – | 85.8 µM
12 | O=C(Nc1ccccc1C(F)(F)F)c1cccc(NC2=C(Cl)C(=O)N(Cc3ccccc3)C2=O)c1 | – | 0.0672 µM | – | 3.04 µM | 9.32 µM | > 25.3 µM | 19.2 µM | > 85.2 µM | 65.6 µM | > 100 µM | 5.87 µM | 36.9 µM | 42.6 µM | > 100 µM | 42.3 µM | > 72.1 µM | 13.2 µM | 52.6 µM
13 | Cc1ccc(C(=O)c2oc3ccc4c(C)cc(=O)oc4c3c2C)cc1 | 9.12 µM | 55.2 µM | 2.69 µM | > 100 µM | 10.4 µM | 98.8 µM | 63.3 µM | > 100 µM | 8.9 µM | > 100 µM | 2.45 µM | 19.1 µM | 25.7 µM | > 100 µM | 6.08 µM | > 100 µM | – | –
14 | O=C(Oc1ccc(O)c2c(=O)n3c(cc12)[nH]c1ccccc13)c1ccccc1 | 6.21 µM | 41.2 µM | 15.5 µM | 36.9 µM | 61 µM | > 100 µM | 34.7 µM | > 100 µM | 33.5 µM | > 100 µM | 4.77 µM | 20.1 µM | – | – | 11.1 µM | 32.5 µM | 24.3 µM | > 100 µM
15 | CC1=CSC2=NC(c3ccc(Cl)c(Cl)c3)=CC(c3ccc(Cl)cc3)N12 (stereo not given) | > 100 µM | > 100 µM | > 100 µM | > 100 µM | > 100 µM | > 100 µM | > 100 µM | > 100 µM | > 100 µM | > 100 µM | > 100 µM | > 100 µM | > 100 µM | > 100 µM | > 100 µM | > 100 µM | – | –
16 | CN1CC(c2ccccc2)N(CCCCN2CC(c3ccccc3)N(C)CC2c2ccccc2)CC1c1ccccc1 (stereo not given) | – | – | – | > 100 µM | – | > 100 µM | – | > 100 µM | – | > 100 µM | – | 39.1 µM | – | 81.8 µM | – | > 100 µM | – | > 100 µM
17 | CC1(C)C=CC[C@]2(C)[C@H]3CC[C@@H]4[C@H]5[C@H](C(=O)/C=C/c6cccnc6)CC[C@]5(CO)CC[C@@]4(C)[C@]3(C)CC[C@@H]12 | 1.19 µM | 2.74 µM | 1.46 µM | 2.79 µM | – | – | 1.01 µM | 2.42 µM | 1.23 µM | 2.68 µM | – | – | 1.38 µM | 2.8 µM | 0.666 µM | 3.22 µM | – | –
18 | S=C(Nc1ccc(-c2nc3ccccc3[nH]2)cc1)NC1CCCCC1 | 12.9 µM | 35.3 µM | – | – | 33.1 µM | – | 22.5 µM | 63.6 µM | 34.4 µM | > 100 µM | 15.4 µM | – | – | 51.9 µM | 26.3 µM | 83.7 µM | 28.5 µM | –
19 | N#CC(C#N)=C(N)/C(C#N)=C\c1ccnc2ccccc12 | – | 89.1 µM | – | 34 µM | – | 66.3 µM | – | > 100 µM | – | 57.7 µM | – | – | – | 87 µM | – | 55.7 µM | – | –
20 | CN(C)CCNc1nc2ccccc2c2c1c1c(n2Cc2ccccc2)-c2ccccc2C1=O | 11 µM | 35.3 µM | 15.8 µM | 30.9 µM | 12.2 µM | 28.6 µM | – | – | 6.92 µM | 22.2 µM | 11.8 µM | 26.1 µM | – | – | 6.14 µM | 52.2 µM | 16.3 µM | 32.3 µM
21 | Nc1nc(-c2cccc([N+](=O)[O-])c2)c(Br)c(=O)[nH]1 | – | > 100 µM | – | > 91.1 µM | – | > 100 µM | – | > 100 µM | – | > 100 µM | – | > 100 µM | – | – | – | > 100 µM | – | > 100 µM
22 | CC[N+](CCCCCCCCCC[N+](CC)(c1ccccn1)c1ccccn1)(c1ccccn1)c1ccccn1 | – | – | – | – | 1.02 µM | 19.5 µM | 0.739 µM | 8 µM | 0.764 µM | 12.1 µM | 1.5 µM | 4.29 µM | 1.52 µM | 17.7 µM | 2.11 µM | 57.5 µM | – | –
23 | Oc1ccc(Br)cc1Sc1cc(Br)ccc1O | 2.69 µM | 8.46 µM | 3.16 µM | 11.6 µM | 7.68 µM | 26.7 µM | 17 µM | 33.3 µM | 19 µM | 34.1 µM | 4.89 µM | 17.6 µM | – | – | 5.89 µM | 24.7 µM | – | –
24 | CC(=O)CC1CCC(=O)CCC(=O)OC(CC(C)=O)CCC(=O)CCC(=O)O1 (stereo not given) | – | > 100 µM | – | > 100 µM | – | > 100 µM | – | > 100 µM | – | > 100 µM | – | – | – | > 100 µM | – | > 100 µM | – | > 100 µM
25 | O=C(Nc1ccc(Cl)cc1)Nc1ccc(Cl)c(Cl)c1 | 4.15 µM | > 100 µM | 1.72 µM | 3.42 µM | 4.36 µM | > 100 µM | 3.31 µM | 13.8 µM | 3.76 µM | > 100 µM | 3.39 µM | > 100 µM | – | – | 5.02 µM | > 100 µM | 3.41 µM | > 100 µM
26 | N#CCCc1nc2ccc(Br)cc2c(=O)n1CCO | – | > 100 µM | – | > 100 µM | – | > 100 µM | – | > 100 µM | – | – | – | > 100 µM | – | > 100 µM | – | > 100 µM | – | > 100 µM
27 | CCOC(=O)CCC(=O)C1c2cccc(O)c2C(=O)c2c(O)cccc21 | – | 1.46 µM | – | 1.4 µM | – | – | – | 2.2 µM | – | 6.24 µM | – | 1.89 µM | – | 3.42 µM | – | 3.4 µM | – | –
28 | COc1cc(-c2nc3ccc(C)cc3[nH]2)ccc1OCC(=O)N=Nc1c(O)[nH]c2ccccc12 | – | – | 1.82 µM | 3.52 µM | – | – | 1.83 µM | 3.54 µM | – | – | 0.339 µM | 1.29 µM | 1.68 µM | 3.18 µM | – | – | 12.7 µM | > 100 µM
